Assay results from ChEMBL document CHEMBL4665641, “Lead optimization and efficacy evaluation of quinazoline-based BET family inhibitors for potential treatment of cancer and inflammatory diseases” (Bioorg Med Chem Lett, 2019).
Activity calls are given as the source filed them. No cut-off for these calls is given here.

Experiments:
[1] = biological target: T1, Bromodomain-containing protein 4 (Homo sapiens, UniProt O60885); test: Competitive binding affinity to human partial length BRD4 (BD1,2) (N44 to E460 residues) expressed in bacterial expression system by BROMOscan assay
Kasumi 1 [2] = test: Antitumor activity against human Kasumi-1 cells xenografted in CB17 SCID mouse assessed as inhibition of tumor growth at 10 mg/kg, po QD for 29 days; type: functional; details: Kasumi 1, po, 696 h, time 29 day, read-out: TGI
[3] = Toxicity in CD1 mouse assessed as clinical abnormalities at 50 to 100 mg/kg, po administered once daily for 5 days and observed for 5 days after last dose; type: organism-based; details: in vivo, 120 h, dose 50-100 mg/kg, time 5 day
Kasumi 1 [4] = test: Antitumor activity against human Kasumi-1 cells xenografted in CB17 SCID mouse assessed as tumor weight at 40 mg/kg, po QD for 25 days (reference value: 2.57 +/-0.27 g); type: functional; details: time 25 day
[5] = Efflux ratio of apparent permeability from basolateral side to apical side over apical side to basolateral side in human Caco2 cells; type: ADME, cell-based; details: caco-2
Kasumi 1 [6] = test: Antitumor activity against human Kasumi-1 cells xenografted in CB17 SCID mouse assessed as inhibition of tumor growth at 40 mg/kg, po QD for 25 days; type: functional; details: Kasumi 1, po, 600 h, time 25 day, read-out: TGI
Cytochrome P450 2C19 = Cytochrome P450 2C19 (Homo sapiens, UniProt P33261); test: Inhibition of human CYP2C19 at 4.9 uM; type: ADME
[7] = AUC(0 to infinity) in CD-1 mouse at 10 mg/kg, po; type: ADME, organism-based; set-up: route oral, time infinity, dose 10 mg/kg; details: mouse, in vivo
[8] = Stability in human liver microsomes assessed as half life; type: ADME, Microsome
[9] = Drug uptake in tumor tissue of CB17 SCID mouse xenografted with human Kasumi-1 cells at 40 mg/kg, po QD for 25 days and measured after 24 hrs post last dose; type: ADME, organism-based, Neoplasm; details: time 25 day, read-out: Drug uptake
Mus musculus [10] = test: (§1) Antiinflammatory activity in collagen/complete freund's adjuvant-induced arthritis DBA/1 mouse model assessed as IL-2 level in rear right paw at 50 mg/kg, po administered via gavage starting from day 21 to day 41 post collagen/CFA challenge and measured on day 42 measured per mg protein (reference value: 0.2 pg); type: functional; details: time 21 day
[11] = biological target: T2, Bromodomain-containing protein 3 (Homo sapiens, UniProt Q15059); test: Binding affinity to human partial length BRD3 (BD1) (P24 to E144 residues) expressed in bacterial expression system by BROMOscan assay
Kasumi 1 [12] = test: Antiproliferative activity against human Kasumi-1 cells after 72 hrs by Celltiter-Glo assay; type: functional, cell-based; details: Kasumi 1, 72 h
[13] = Toxicity in collagen/CFA induced arthritis DBA/1 mouse model assessed as body weight at 50 mg/kg, po administered via gavage starting from day 21 to day 41 post collagen/CFA challenge and measured on day 21 relative to initial weight (reference value: 94.96%); type: organism-based; details: in vivo, 504 h, time 21 day
[14] = Apparent permeability across apical to basolateral side in human Caco2 cells; type: ADME, cell-based; details: caco-2
[15] = Volume of distribution at steady state in CD-1 mouse at 2 mg/kg, iv; type: ADME, organism-based; details: in vivo, read-out: Vdss
CYP2D6 = CYP2D6 (Homo sapiens, UniProt P10635); test: Inhibition of human CYP2D6 at 10 uM relative to control; type: ADME
Cytochrome P450 2C9 = Cytochrome P450 2C9 (Homo sapiens, UniProt P11712); test: Inhibition of human CYP2C9 at […]; type: ADME; details: dose 2.1 µM
Mus musculus [16] = test: Antiarthritic activity in collagen/complete freund's adjuvant-induced arthritis DBA/1 mouse model assessed as hind paw histological score at 50 mg/kg, po administered via gavage starting from day 21 to day 41 post collagen/CFA challenge and measured on day 42 by hematoxylin-eosin staining based assay (reference value: 2.66 +/- 0.44 au); type: functional; details: time 21 day
Mus musculus [17] = test: as §1, with “VEGF” for “IL-2”, “0.98” for “0.2”; type: functional; details: time 21 day
[18] = biological target: Voltage-gated inwardly rectifying potassium channel KCNH2 (Homo sapiens, UniProt Q12809); test: Inhibition of human ERG by manual patch clamp assay
Mus musculus [19] = test: as §1, with “M-CSF” for “IL-2”, “3.49” for “0.2”; type: functional; details: time 21 day
[20] = biological target: Bromodomain testis-specific protein (Homo sapiens, UniProt Q58F21); test: Binding affinity to human partial length BRDT (BD1,2) (N21 to E382 residues) expressed in bacterial expression system by BROMOscan assay
[21] = Oral bioavailability in CD-1 mouse at 10 mg/kg; type: ADME, organism-based; details: mouse, in vivo, 10 mg/kg
[22] = biological target: Bromodomain-containing protein 2 (Homo sapiens, UniProt P25440); test: Binding affinity to human partial length BRD2 (BD2) (E348 to D455 residues) expressed in bacterial expression system by BROMOscan assay
[23] = biological target: T2, Bromodomain-containing protein 3; test: Binding affinity to human partial length BRD3 (BD2) (G306 to P416 residues) expressed in bacterial expression system by BROMOscan assay
Mus musculus [24] = test: as §1, with “IFN-gamma” for “IL-2”, “0.78” for “0.2”; type: functional; details: time 21 day
Mus musculus [25] = test: Antiarthritic activity in collagen/complete freund's adjuvant-induced DBA/1 mouse model of arthritis assessed as reduction in joint inflammation at 50 mg/kg, po administered via gavage starting from day 21 to day 41 post collagen/CFA challenge and measured on day 42 by H&E staining based analysis; type: functional, organism-based; details: time 21.0 day
Kasumi 1 [26] = test: Antitumor activity against human Kasumi-1 cells xenografted in CB17 SCID mouse assessed as tumor volume at 40 mg/kg, po QD for 25 days (reference value: 2189 +/- 604 mm3); type: functional; details: time 25 day
[27] = biological target: T1, Bromodomain-containing protein 4; test: Inhibition of human full-length recombinant N-terminal His-tagged BRD4 (2 to 1362 residues) expressed in Sf9 cells using histone H4 peptide containing acetylated lysine residues as substrate preincubated with enzyme for 30 mins followed by incubation with substrate for 30 mins by Alphascreen assay […]
[28] = Drug metabolism in rat assessed as oxidised metabolite formation by MetID study analysis; type: ADME
Mus musculus [29] = test: Antiarthritic activity in collagen/complete freund's adjuvant-induced arthritis DBA/1 mouse model assessed as reduction in histological damage of hind paw at 50 mg/kg, po administered via gavage starting from day 21 to day 41 post collagen/CFA challenge and measured on day 42 by hematoxylin-eosin staining based assay; type: functional, organism-based; details: time 21.0 day

T2 sequence (Q15059 whole entry, the tested form may be a part): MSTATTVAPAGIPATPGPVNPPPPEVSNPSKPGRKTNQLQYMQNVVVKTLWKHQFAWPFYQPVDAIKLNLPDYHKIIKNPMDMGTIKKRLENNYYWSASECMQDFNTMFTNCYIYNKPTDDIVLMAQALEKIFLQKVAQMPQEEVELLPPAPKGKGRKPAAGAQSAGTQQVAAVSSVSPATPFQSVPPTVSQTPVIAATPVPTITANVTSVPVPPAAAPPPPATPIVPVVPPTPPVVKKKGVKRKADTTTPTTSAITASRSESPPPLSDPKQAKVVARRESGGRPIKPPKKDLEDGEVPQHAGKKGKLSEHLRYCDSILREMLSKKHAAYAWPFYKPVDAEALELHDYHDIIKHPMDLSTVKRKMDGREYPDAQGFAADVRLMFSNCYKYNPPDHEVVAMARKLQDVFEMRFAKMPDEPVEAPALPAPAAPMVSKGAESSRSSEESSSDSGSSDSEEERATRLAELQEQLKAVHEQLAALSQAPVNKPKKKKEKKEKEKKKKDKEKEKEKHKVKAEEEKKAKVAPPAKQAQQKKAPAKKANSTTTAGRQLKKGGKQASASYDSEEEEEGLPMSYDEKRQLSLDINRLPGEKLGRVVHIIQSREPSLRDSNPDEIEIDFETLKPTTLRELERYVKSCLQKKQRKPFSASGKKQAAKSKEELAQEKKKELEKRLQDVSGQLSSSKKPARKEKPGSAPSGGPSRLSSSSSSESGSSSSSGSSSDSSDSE
Chain of Cytochrome P450 2C9 (P11712 whole entry): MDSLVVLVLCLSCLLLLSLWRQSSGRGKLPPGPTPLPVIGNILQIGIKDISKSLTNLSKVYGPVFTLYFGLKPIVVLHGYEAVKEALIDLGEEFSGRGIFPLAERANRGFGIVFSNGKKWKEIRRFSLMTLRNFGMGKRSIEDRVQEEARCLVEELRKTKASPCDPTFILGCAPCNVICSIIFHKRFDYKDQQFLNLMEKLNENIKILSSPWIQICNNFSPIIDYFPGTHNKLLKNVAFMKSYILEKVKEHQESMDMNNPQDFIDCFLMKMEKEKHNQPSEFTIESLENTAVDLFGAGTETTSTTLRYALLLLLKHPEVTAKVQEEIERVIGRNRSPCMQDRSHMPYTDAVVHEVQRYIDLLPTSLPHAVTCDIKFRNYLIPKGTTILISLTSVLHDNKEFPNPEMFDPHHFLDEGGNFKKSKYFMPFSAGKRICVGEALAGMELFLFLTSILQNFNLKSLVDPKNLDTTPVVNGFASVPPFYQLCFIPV
Chain of Voltage-gated inwardly rectifying potassium channel KCNH2 (Q12809 whole entry): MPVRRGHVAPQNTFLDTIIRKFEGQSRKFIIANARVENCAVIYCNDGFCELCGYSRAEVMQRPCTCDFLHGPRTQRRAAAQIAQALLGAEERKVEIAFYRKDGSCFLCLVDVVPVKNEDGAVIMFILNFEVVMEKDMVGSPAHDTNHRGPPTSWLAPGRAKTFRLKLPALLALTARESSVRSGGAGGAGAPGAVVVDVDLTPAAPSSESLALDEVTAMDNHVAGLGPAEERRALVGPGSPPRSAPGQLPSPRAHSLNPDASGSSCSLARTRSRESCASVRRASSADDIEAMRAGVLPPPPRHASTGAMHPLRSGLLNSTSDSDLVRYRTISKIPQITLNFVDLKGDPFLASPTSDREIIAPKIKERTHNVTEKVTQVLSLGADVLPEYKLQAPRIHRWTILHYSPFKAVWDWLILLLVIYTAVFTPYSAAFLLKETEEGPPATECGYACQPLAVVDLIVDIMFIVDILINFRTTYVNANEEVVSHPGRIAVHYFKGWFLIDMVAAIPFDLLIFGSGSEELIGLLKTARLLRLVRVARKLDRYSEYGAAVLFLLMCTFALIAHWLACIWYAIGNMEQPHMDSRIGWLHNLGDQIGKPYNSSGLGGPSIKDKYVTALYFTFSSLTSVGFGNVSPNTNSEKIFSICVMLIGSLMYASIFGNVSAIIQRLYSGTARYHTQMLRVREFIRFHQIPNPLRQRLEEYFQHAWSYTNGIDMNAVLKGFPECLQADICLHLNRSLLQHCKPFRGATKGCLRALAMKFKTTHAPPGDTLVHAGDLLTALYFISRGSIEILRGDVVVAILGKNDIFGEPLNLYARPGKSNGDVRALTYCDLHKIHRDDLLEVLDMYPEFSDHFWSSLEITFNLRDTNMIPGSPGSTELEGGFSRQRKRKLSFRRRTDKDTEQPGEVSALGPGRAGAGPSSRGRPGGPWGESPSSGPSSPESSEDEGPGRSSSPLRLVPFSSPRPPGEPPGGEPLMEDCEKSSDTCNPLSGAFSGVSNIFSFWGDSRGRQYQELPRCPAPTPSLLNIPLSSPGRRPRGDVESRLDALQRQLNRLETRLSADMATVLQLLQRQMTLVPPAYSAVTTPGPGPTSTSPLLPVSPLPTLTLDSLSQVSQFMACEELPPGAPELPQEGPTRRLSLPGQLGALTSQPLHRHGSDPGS
Chain of Bromodomain-containing protein 2 (P25440 whole entry, the tested form may be a part): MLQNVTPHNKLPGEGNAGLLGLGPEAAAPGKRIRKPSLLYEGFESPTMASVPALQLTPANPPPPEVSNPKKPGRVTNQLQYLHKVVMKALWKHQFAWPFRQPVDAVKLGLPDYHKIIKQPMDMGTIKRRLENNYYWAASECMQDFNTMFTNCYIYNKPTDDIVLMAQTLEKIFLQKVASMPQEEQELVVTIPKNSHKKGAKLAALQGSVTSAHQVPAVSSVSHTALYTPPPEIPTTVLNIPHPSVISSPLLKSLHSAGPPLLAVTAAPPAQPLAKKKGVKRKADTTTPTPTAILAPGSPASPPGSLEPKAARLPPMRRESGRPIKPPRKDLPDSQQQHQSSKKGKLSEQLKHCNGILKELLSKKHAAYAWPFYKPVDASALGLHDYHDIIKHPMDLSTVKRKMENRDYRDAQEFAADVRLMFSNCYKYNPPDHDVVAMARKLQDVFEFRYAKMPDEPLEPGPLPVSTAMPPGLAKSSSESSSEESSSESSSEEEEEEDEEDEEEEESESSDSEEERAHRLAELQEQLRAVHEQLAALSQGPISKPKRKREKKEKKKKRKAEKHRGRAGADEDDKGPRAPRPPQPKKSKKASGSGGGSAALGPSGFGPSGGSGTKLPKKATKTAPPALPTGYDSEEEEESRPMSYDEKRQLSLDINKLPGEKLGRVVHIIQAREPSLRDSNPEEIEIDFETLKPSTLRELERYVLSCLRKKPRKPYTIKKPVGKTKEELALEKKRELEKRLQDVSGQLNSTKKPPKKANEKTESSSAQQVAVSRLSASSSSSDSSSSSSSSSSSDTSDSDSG
Chain of Cytochrome P450 2C19 (P33261 whole entry): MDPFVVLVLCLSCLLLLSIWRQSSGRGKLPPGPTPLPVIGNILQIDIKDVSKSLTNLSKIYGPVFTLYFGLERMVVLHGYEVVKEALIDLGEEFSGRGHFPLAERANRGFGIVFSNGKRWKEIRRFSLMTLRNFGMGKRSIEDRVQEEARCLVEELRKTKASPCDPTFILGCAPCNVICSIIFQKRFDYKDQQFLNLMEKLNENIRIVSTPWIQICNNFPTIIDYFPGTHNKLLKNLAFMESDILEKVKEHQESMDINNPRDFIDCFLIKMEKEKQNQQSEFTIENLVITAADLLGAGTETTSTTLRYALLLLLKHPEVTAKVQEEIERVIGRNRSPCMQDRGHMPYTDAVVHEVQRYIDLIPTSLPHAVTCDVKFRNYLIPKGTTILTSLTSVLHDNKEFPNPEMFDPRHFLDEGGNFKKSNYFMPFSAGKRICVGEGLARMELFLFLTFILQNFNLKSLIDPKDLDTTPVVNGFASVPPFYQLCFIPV
Chain of CYP2D6 (P10635 whole entry): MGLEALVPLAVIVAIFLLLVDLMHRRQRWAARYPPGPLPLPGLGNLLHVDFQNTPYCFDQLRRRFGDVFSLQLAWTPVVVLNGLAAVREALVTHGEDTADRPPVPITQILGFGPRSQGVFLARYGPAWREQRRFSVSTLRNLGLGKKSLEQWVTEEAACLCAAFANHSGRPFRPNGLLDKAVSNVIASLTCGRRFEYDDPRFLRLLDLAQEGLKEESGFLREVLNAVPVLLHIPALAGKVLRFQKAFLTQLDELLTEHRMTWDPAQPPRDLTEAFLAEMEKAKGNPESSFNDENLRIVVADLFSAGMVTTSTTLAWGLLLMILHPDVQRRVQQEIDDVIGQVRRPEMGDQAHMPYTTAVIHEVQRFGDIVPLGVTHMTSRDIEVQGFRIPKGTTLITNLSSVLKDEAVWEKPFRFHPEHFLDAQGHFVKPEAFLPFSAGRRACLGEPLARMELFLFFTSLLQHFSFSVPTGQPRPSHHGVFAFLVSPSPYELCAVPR

Which Kd [1] does the source give for Cc1noc(C)c1-c1ccc2nc(-c3cnn(CC(C)(C)O)c3)nc(N3CCOC[C@@H]3c3ccccc3)c2c1 here?
Its Kd is 70 nM.

And the inhibition in vivo at 10 mg/kg (Kasumi 1 [2])?
Its inhibition in vivo at 10 mg/kg is 41.9%.

What about the Activity [3] of the same molecule?
The Activity was “Non-Toxic”.

And the Activity (Kasumi 1 [4])?
Its Activity is 0.04 g.

And the Ratio [5]?
Its Ratio is 1.

What about the inhibition in vivo at 40 mg/kg (Kasumi 1 [6]) of the same molecule?
The inhibition in vivo at 40 mg/kg was 98.6%.

And the “inhibition (INH)” value (Cytochrome P450 2C19)?
The value was “Active”.

And the AUC [7]?
Its AUC is 18927 ng·h/mL.

What about the half-life [8] of the same molecule?
Its half-life is 1.7 h.

And the concentration at 600 h [9]?
Its concentration at 600 h is 2260 ng/g.

What about the Activity (Mus musculus [10]) of the same molecule?
The Activity was 0.3 pg.

And the Kd [11]?
Its Kd is 11 nM.

And the IC50 (Kasumi 1 [12])?
The IC50 was 220 nM.

And the Activity [13]?
Its Activity is 101.92%.

What about the Papp [14] of the same molecule?
Its Papp is 18.2 10^-6 cm/s.

And the Vd [15]?
Its Vd is 1.04 L/kg.

And the inhibition at 10 µM (CYP2D6)?
The inhibition at 10 µM was under 50%.

And the INH (Cytochrome P450 2C9)?
The INH was “Active”.

What about the Activity (Mus musculus [16]) of the same molecule?
The Activity was 0.5 a.u.

What about the Activity (Mus musculus [17]) of the same molecule?
The Activity was 1.6 pg.

What about the IC50 [18] of the same molecule?
The IC50 was 6500 nM.

And the Activity (Mus musculus [19])?
The Activity was 2.89 pg.

What about the Kd [20] of the same molecule?
Its Kd is 170 nM.

What about the F [21] of the same molecule?
The F was 75%.

And the Kd [22]?
Its Kd is 200 nM.

What about the Kd [23] of the same molecule?
The Kd was 44 nM.

And the Activity (Mus musculus [24])?
Its Activity is 1.29 pg.

And the Activity (Mus musculus [25])?
Its Activity is “Active”.

What about the Activity (Kasumi 1 [26]) of the same molecule?
The Activity was 66 mm3.

What about the IC50 [27] of the same molecule?
The IC50 was 14 nM.

And the Drug metabolism [28]?
The Drug metabolism was “Metabolite_Detected”.

What about the Activity (Mus musculus [29]) of the same molecule?
Its Activity is “Active”.
